Laboratory results taken from patent US8044089B2, “3-3-di-substituted-oxindoles as inhibitors of translation initiation” (President and Fellows of Harvard College, priority 2004, dated 2011).

Legend:
[1] = system: intracellular Ca^2+ stores; test: Ca2+ release from intracellular stores (FURA-2AM loaded cells); type: cell-based; parameters: key to Ca^2+ (Ca^2+ release from intracellular stores): a “+” denotes release; a “+/−” denotes inconclusive
Source text: (§1) As a non-limiting example, compounds 1272 and 1273 (set forth in Table 1) were synthesized starting from 3-bromoaniline, which upon condensation with hydroxylamine and chloral hydrate followed by concentrated sulfuric acid yielded an inseparable regioisomeric mixture of 4- and 6-bromo isatins. The addition of the two phenyl groups to the three position of the oxindole allowed easy chromatographic separation of the 4- and 6-bromo-3,3-diphenyloxindoles 1272 and 1273. Table 1 sets forth biological data for diaryloxindole compounds including, but not limited to 1272 and 1273. For Tables 1-14, Ca^2+ refers to Ca^2+ release from intracellular stores where a “+” denotes release and a “+/−” denotes inconclusive; eIF2α-P refers to phosphorylation of eIF2α measured by Western blot; SRB refers to the inhibitory concentration to reduce cell growth by 50% (IC50) for growth inhibition of A549 lung cancer cells; and n.d. is not determined.
(§2) Without intending to be bound by theory, the mechanism of action of translation initiation inhibitors is set forth in FIG. 1, and includes the depletion (complete or partial depletion) of intracellular calcium (Ca^2+) stores and phosphorylation of eIF2α. Compounds synthesized using the approaches described herein were screened for their ability to partially deplete intracellular Ca^2+ stores using FURA-2AM loaded cells (Benzaquen et al. (1995) Nature Medicine, 1:534, incorporated herein by reference in its entirety for all purposes). A limited subset of compounds were further screened for their ability to deplete endoplasmic reticulum (ER) Ca^2+. The Ca^2+ content of the ER was monitored using ER-targeted, Ca^2+ sensitive, recombinant proteins. These recombinant proteins emitted light by fluorescent resonance energy transfer (FRET) as a function of the Ca^2+ content of the medium. Such assays are previously described (Miyawaki, A.; Mizuno, H.; Llopis, J.; Tsien, R. Y.; Jalink, K. Cameleons as cytosolic and intra-organellar calcium probes, Oxford University Press: Oxford, London, 2001; pp 3-16, incorporated herein by reference in its entirety for all purposes). Compounds that depleted Ca^2+ were further evaluated for their ability to phosphorylate eIF2α. eIF2α phosphorylation was measured by Western blot analysis using the phospho-specific anti-eIF2α antibody, as previously described (Aktas et al. (1998) Proc. Natl. Acad. Sci. USA, 95:8280, incorporated herein by reference in its entirety for all purposes).

eIF2α = eIF2α phosphorylation measured by Western blot; type: cell-based; settings: for eIF2α-P (phosphorylation of eIF2α measured by Western blot): unit or reference not given
Source text: as §1, §2

A549 lung cancer cells = test: SRB growth inhibition of A549 lung cancer cells; type: cell-based, human; settings: for IC50: A549 lung cancer cells, unit inferred, read-out: SRB (IC50 for growth inhibition of A549 lung cancer cells)
Source text: As a non-limiting example, compounds 1272 and 1273 (set forth in Table 1) were synthesized starting from 3-bromoaniline, which upon condensation with hydroxylamine and chloral hydrate followed by concentrated sulfuric acid yielded an inseparable regioisomeric mixture of 4- and 6-bromo isatins. The addition of the two phenyl groups to the three position of the oxindole allowed easy chromatographic separation of the 4- and 6-bromo-3,3-diphenyloxindoles 1272 and 1273. Table 1 sets forth biological data for diaryloxindole compounds including, but not limited to 1272 and 1273. For Tables 1-14, Ca^2+ refers to Ca^2+ release from intracellular stores where a “+” denotes release and a “+/−” denotes inconclusive; eIF2α-P refers to phosphorylation of eIF2α measured by Western blot; SRB refers to the inhibitory concentration to reduce cell growth by 50% (IC50) for growth inhibition of A549 lung cancer cells; and n.d. is not determined. […]

Row | SMILES | IC50 (A549 lung cancer cells) [µM] | Ca^2+ (Ca^2+ release from intracellular stores) [1] | eIF2α-P (phosphorylation of eIF2α measured by Western blot) (eIF2α) | eIF2α phosphorylation (in words) (eIF2α) | Ca^2+ release / depletion of intracellular Ca^2+ (in words) [1] | growth inhibition of cancer cells (in words) (A549 lung cancer cells; A549)
1 | COC(=O)C(Cc1ccc(O)c(C2(c3ccccc3)C(=O)Nc3ccccc32)c1)NC(=O)OCC1c2ccccc2-c2ccccc21 (centres unmarked) [Compound 1172] | – | + | 1.94 | – | – | –
2 | O=C1Nc2ccccc2C1(c1ccccc1)c1ccccc1 [Compound 1194] | 13 | + | 2.5 | – | – | –
3 | O=C1Nc2ccccc2C1(c1ccccc1)c1ccccc1O (centres unmarked) [Compound 1197] | 14 | + | 1.50 | – | – | –
4 | O=C1Nc2ccc(Br)cc2C1(c1ccccc1)c1ccccc1 [Compound 1205] | 9 | + | 2.05 | none of the compounds exhibited an increase in eIF2α phosphorylation relative to compound 1392 | – | –
5 | O=C1Nc2ccc(Cl)cc2C1(c1ccccc1)c1ccccc1 [Compound 1206] | 9 | + | 1.58 | – | – | –
6 | O=C1Nc2c(Br)cccc2C1(c1ccccc1)c1ccccc1 [Compound 1207] | 3 | +/− | 2.01 | none of the compounds exhibited an increase in eIF2α phosphorylation relative to compound 1392 | abrogated Ca^2+ depletion activity | –
7 | O=C1Nc2ccccc2C1(c1ccc(Cl)cc1)c1ccccc1O (centres unmarked) [Compound 1208] | 10 | + | 1.42 | – | – | –
8 | CC(C)(C)c1ccc(O)c(C2(c3ccccc3)C(=O)Nc3cccc(Cl)c32)c1 (centres unmarked) [Compound 1209] | 8 | + | 2.08 | – | – | –
9 | CC(C)(C)c1ccc(O)c(C2(c3ccc(F)cc3)C(=O)Nc3ccccc32)c1 (centres unmarked) [Compound 1210] | 4 | + | 1.86 | – | – | –
10 | CC(C)(C)c1ccc(O)c(C2(c3ccccc3)C(=O)Nc3ccc(Br)cc32)c1 (centres unmarked) [Compound 1211] | 3 | + | 1.14 | – | – | –
11 | CC(C)(C)c1ccc(O)c(C2(c3ccccc3)C(=O)Nc3ccc([N+](=O)[O-])cc32)c1 (centres unmarked) [Compound 1212] | 4 | + | 1.28 | – | – | –
12 | C=CCCCOc1ccc(C2(c3cc(C(C)(C)C)ccc3O)C(=O)Nc3ccccc32)cc1 (centres unmarked) [Compound 1218] | 7 | – | 1.36 | – | – | –
13 | O=C1Nc2ccc(S(=O)(=O)O)cc2C1(c1ccccc1)c1ccccc1 [Compound 1266] | 9 | – | 1.62 | – | – | –
14 | O=C1Nc2c(I)cccc2C1(c1ccccc1)c1ccccc1 [Compound 1267] | – | – | 1.88 | – | – | –
15 | CCc1cccc2c1NC(=O)C2(c1ccccc1)c1ccccc1 [Compound 1268] | 14 | – | 2.19 | – | – | –

Second part, led by results:

Row | IC50 (A549 lung cancer cells) [µM] | SMILES | Ca^2+ (Ca^2+ release from intracellular stores) [1] | eIF2α-P (phosphorylation of eIF2α measured by Western blot) (eIF2α) | eIF2α phosphorylation (in words) (eIF2α) | Ca^2+ release / depletion of intracellular Ca^2+ (in words) [1] | growth inhibition of cancer cells (in words) (A549 lung cancer cells; A549)
16 | 3 | CCCCCCCCCCCCC1(c2cc(C(C)(C)C)ccc2O)C(=O)Nc2ccccc21 (centres unmarked) [Compound 1274] | – | 0.91 | – | – | –
17 | 10 | CC(C)(C)c1ccc(O)c(C2(C3CCCCC3)C(=O)Nc3ccccc32)c1 (centres unmarked) [Compound 1277] | – | 1.08 | – | – | –
18 | 3 | CCCCCCCCc1ccc(O)c(C2(c3ccccc3)C(=O)Nc3ccccc32)c1 (centres unmarked) [Compound 1284] | – | 2.91 | – | – | –
19 | 10 | COc1ccc(C2(c3ccccc3)C(=O)Nc3ccccc32)cc1 (centres unmarked) [Compound 1294] | – | 1.52 | – | – | –
20 | 3 | CC(C)(C)c1ccc(O)c(C2(c3c(F)c(F)c(F)c(F)c3F)C(=O)Nc3ccccc32)c1 (centres unmarked) [Compound 1328] | + | – | – | – | –
21 | 3 | CC(C)(C)OC(=O)NCCOc1ccc(C(C)(C)C)cc1C1(c2ccccc2)C(=O)Nc2ccccc21 (centres unmarked) [Compound 1329] | – | 0.89 | – | – | –
22 | 3 | CC(C)(C)c1ccc(O)c(C2(c3ccccc3)C(=O)Nc3ccc(N=[N+]=[N-])cc32)c1 (centres unmarked) [Compound 1348] | + | – | – | – | –
23 | > 20 | O=C(O)c1cccc2c1NC(=O)C2(c1ccccc1)c1ccccc1 [Compound 1353] | – | 1.54 | – | – | –
24 | 3 | Cc1cc(C2(c3ccccc3)C(=O)Nc3ccccc32)c(NC(=O)OCC2c3ccccc3-c3ccccc32)cc1O (centres unmarked) [Compound 1395] | – | 1.84 | – | – | –
25 | 7 | CC(C)(C)c1ccc(OC(=O)CCCC(=O)O)c(C2(c3ccccc3)C(=O)Nc3ccccc32)c1 (centres unmarked) [Compound 1396] | – | 1.72 | – | – | –
26 | 14 | O=C1Nc2c(CO)ccc(Cl)c2C1(c1ccccc1)c1ccccc1 [Compound 1398] | – | 1.48 | reduced eIF2α phosphorylation relative to compound 1392 | – | reduced potency of tumor cell growth inhibition
27 | 14 | Cc1cc(C2(c3ccccc3)C(=O)Nc3ccccc32)c(NS(C)(=O)=O)cc1O (centres unmarked) [Compound 1427] | + | – | – | – | –
28 | 3 | CC(C)(C)c1ccc(O)c(C2(c3ccccc3)C(=O)Nc3cccc(Cl)c32)c1 (centres unmarked) [Compound 1428] | + | – | – | – | –
29 | 3 | CC(C)(C)c1ccc(O)c(C2(c3ccccc3)C(=O)Nc3cc(Cl)ccc32)c1 (centres unmarked) [Compound 1429] | + | – | – | – | –
30 | 3 | Cc1cc(C2(c3ccccc3)C(=O)Nc3ccccc32)c(NC(=O)c2ccc(C(C)(C)C)cc2)cc1O (centres unmarked) [Compound 1493] | – | 2.06 | – | – | –
31 | 4 | CC(=O)Nc1ccc(S(=O)(=O)Nc2cc(O)c(C)cc2C2(c3ccccc3)C(=O)Nc3ccccc32)cc1 (centres unmarked) [Compound 1512] | – | 1.01 | – | – | –
32 | 4 | Cc1cc(C2(c3ccccc3)C(=O)Nc3ccccc32)c(NS(=O)(=O)c2ccc(-c3ccccc3)cc2)cc1O (centres unmarked) [Compound 1593] | – | 2.22 | – | – | –
33 | 5 | Cc1cc(C2(c3ccccc3)C(=O)Nc3ccccc32)c(NS(=O)(=O)c2ccc(Oc3ccccc3)cc2)cc1O (centres unmarked) [Compound 1594] | – | 3.73 | – | – | –
34 | < 1 | CC(C)(C)c1ccc(S(=O)(=O)Nc2cc(O)ccc2C2(c3ccccc3)C(=O)Nc3ccccc32)cc1 (centres unmarked) [Compound 1623] | + | – | – | – | –
35 | < 1 | CC(C)(C)c1ccc(S(=O)(=O)Nc2ccc(C3(c4ccccc4)C(=O)Nc4ccccc43)c(O)c2)cc1 (centres unmarked) [Compound 1624] | + | – | – | – | –
36 | 3 | CC(C)(C)c1ccc(S(=O)(=O)Nc2ccc(O)c(C3(c4ccccc4)C(=O)Nc4ccccc43)c2)cc1 (centres unmarked) [Compound 1638] | + | – | – | – | –
